Data on five compounds can be found in patent US20090281054A1, “COMPOSITIONS AND METHODS COMPRISING CAPURAMYCIN ANALOGUES” (priority 2008, published 2009).

Assay [1] deals with M. abscessus. As to the kind of experiment: Synergy by checkerboard titration (microdilution). Format: cell-based.
Assay [2] relates to M. avium complex (MAC). The experiment in a line: MIC by microdilution method in 7H9 broth. Format: cell-based. Conditions: for MIC90: value in square brackets. On the technique in general: Broth dilution looks for growth in wells or tubes with falling amounts of substance.
Assay [3] has as its system M. smegmatis (MSMG; MC2155). As to the kind of experiment: MIC by microdilution method in 7H9 broth. Format: cell-based. Conditions: MSMG MC^2155, 72 hr.
For assay [4], the system named is M. abscessus (MAB; ATCC 700869). As to the kind of experiment: MIC by microdilution method in 7H9 broth. Conditions: MAB 700869. It is filed as cell-based.
In assay [5] the test system is M. kansaii (MKN; ATCC12478 & 35775). The experiment in a line: MIC by microdilution method in 7H9 broth. Format: cell-based, M. kansasii.
Assay [6] has as its system intracellular MTB (MTBp-SMT1) in J774A.1 macrophages. As to the kind of experiment: Intracellular activity of SQ641-TPGS micelles. It is filed as cell-based, Mycobacterium tuberculosis.
For assay [7], the system named is M. smegmatis. As to the kind of experiment: Synergy by checkerboard titration (microdilution). Format: cell-based. Conditions: M. smegmatis.
For assay [8], the target named is translocase I (Escherichia coli, UniProt P0A6W3). As to the kind of experiment: IC50 against translocase I. Format: biochemical.
Sequence of translocase I (P0A6W3 whole entry): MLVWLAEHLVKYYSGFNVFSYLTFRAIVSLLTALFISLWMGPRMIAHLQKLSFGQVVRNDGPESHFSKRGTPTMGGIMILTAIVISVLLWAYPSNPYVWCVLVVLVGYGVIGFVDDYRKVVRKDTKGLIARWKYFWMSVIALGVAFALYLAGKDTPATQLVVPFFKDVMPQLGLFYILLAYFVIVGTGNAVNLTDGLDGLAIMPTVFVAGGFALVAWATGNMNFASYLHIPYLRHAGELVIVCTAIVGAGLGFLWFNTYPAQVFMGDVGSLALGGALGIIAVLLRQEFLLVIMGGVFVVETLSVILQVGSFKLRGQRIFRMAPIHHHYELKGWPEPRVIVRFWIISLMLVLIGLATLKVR
The mark [9] stands for this setting: Mycobacterium avium, 336 h, MAC isolates, 2 wk, read-out: MIC (range).
The mark [10] stands for this setting: Mycobacterium avium, MAC isolates, read-out: MIC90.
Setting [11] is: Mycolicibacterium smegmatis, MC2155|MC^2155, read-out: MIC.
Setting [12] is: Mycobacteroides abscessus, ATCC700869, read-out: MIC.
Setting [13] is: Mycobacterium avium, MAC strain 100, read-out: MIC.
[14] abbreviates: Mycobacterium avium, MAC strain 101, read-out: MIC.
The mark [15] stands for this setting: Mycobacterium avium, MAC strain 104, read-out: MIC.
The mark [16] stands for this setting: Mycobacterium avium, MAC strain 109, read-out: MIC.
[17] abbreviates: Mycobacterium avium, MAC strain A5, read-out: MIC.
Where [18] appears, read: Mycobacterium avium, MAC strain JSH1, read-out: MIC.
The mark [19] stands for this setting: Mycobacterium avium, MAC strain NIH C1-1, read-out: MIC.
[20] abbreviates: Mycobacterium avium, MAC strain NIH C1-2, read-out: MIC.
Where [21] appears, read: Mycobacterium avium, MAC strain NIH C1-3, read-out: MIC.
[22] abbreviates: Mycobacterium avium, MAC strain NIH C1-4, read-out: MIC.
[23] abbreviates: Mycobacterium kansasii, ATCC 12478 / ATCC 35775, MKN ATCC35775, read-out: MIC.
The mark [24] stands for this setting: Mycobacterium kansasii, MKN ATCC12478, read-out: MIC.

pIC50: −log10 of the molar value. ≈ marks a conversion by molar mass, not a printed value. Read-outs that look alike come from different tables or passages of the source.

The term MIC90 denotes the lowest concentration that inhibits either 90% of growth or 90% of the strains tested, depending on the study. Usually MIC stands for the least concentration at which growth counts as inhibited. For `CO[C@H]1/C=C/O[C@@]2(C)Oc3c(C)c(O)c4c(c3C2=O)C2=NC3(CCN(CC(C)C)CC3)NC2=C(NC(=O)/C(C)=C\C=C\[C@H](C)[C@H](O)[C@@H](C)[C@@H](O)[C@@H](C)[C@H](OC(C)=O)[C@@H]1C)C4=O` [RFB, reference compound], in assay [1] (combination SQ641 + RFB), the “MIC Combination” value was 0.25 µg/mL. Further, the “MIC Alone” value in assay [1] (drug alone) amounted to 2.0 µg/mL. Also, the “MIC range” value in assay [2] (MAC isolates, 2 wk) is 0.0078 to 0.125 µg/mL. In assay [2] (MAC isolates), this compound yielded an MIC90 of 0.062 µg/mL (≈ 0.0732 µM). The MIC in assay [3] was 0.25 µg/mL (≈ 0.295 µM); in assay [4] it was 2 µg/mL (≈ 2.36 µM); in assay [5] (MKN ATCC12478), “≦0.0039 μg/ml”; in assay [5] (MKN ATCC35775), “≦0.031 μg/ml”.

For the compound `CO[C@H]1/C=C/O[C@@]2(C)Oc3c(C)c(O)c4c(O)c(c(/C=N/N5CCN(C)CC5)c(O)c4c3C2=O)NC(=O)/C(C)=C\C=C\[C@H](C)[C@H](O)[C@@H](C)[C@@H](O)[C@@H](C)[C@H](OC(C)=O)[C@@H]1C` [RIF, rifampicin, reference compound], the “Mean RLU at Day 7” value in assay [6] stood at 22 RLU. In addition, the MIC in assay [2] (setting [9]) is 0.062 to 4 µg/mL (≈ 0.0753 to 4.86 µM); in assay [7] (Mycolicibacterium smegmatis, drug alone), 8 µg/mL; in assay [3] (setting [11]) it was 8 µg/mL (≈ 9.72 µM); in assay [4] (setting [12]), over 32 µg/mL; in assay [5] (Mycobacterium kansasii, ATCC12478), 0.125 µg/mL (≈ 0.152 µM); in assay [5] (Mycobacterium kansasii, ATCC 12478 / ATCC 35775) it was 0.125 µg/mL (≈ 0.152 µM). In assay [2] (setting [10]), the MIC90 was 1 µg/mL (≈ 1.22 µM). Moreover, the “MIC Combination” value in assay [7] (combination SQ641 + RIF) stood at 2.0 µg/mL.

By pIC50 is commonly meant −log10 of the IC50, conventionally taken in molar units. As for `CO[C@H]1[C@@H](O)[C@H](n2ccc(=O)[nH]c2=O)O[C@@H]1[C@@H](O[C@H]1OC(C(=O)Nc2ccc(OC(F)(F)F)cc2)=C[C@H](O)[C@@H]1O)C(N)=O` [RKS2241], the MIC was 0.5 to 16 µg/mL (≈ 0.808 to 25.9 µM) in assay [2] (setting [9]); 2 µg/mL (≈ 3.23 µM) in assay [2] (setting [13]); 1 µg/mL (≈ 1.62 µM) in assay [2] (setting [14]); 0.5 µg/mL (≈ 0.808 µM) in assay [2] (setting [15]); 0.5 µg/mL (≈ 0.808 µM) in assay [2] (setting [16]); 1 µg/mL (≈ 1.62 µM) in assay [2] (setting [17]). The MIC worked out at 2 µg/mL (≈ 3.23 µM) in assay [2] (setting [18]); 8 µg/mL (≈ 12.9 µM) in assay [2] (setting [19]); 1 µg/mL (≈ 1.62 µM) in assay [2] (setting [20]); 16 µg/mL (≈ 25.9 µM) in assay [2] (setting [21]); 2 µg/mL (≈ 3.23 µM) in assay [2] (setting [22]); 4 µg/mL (≈ 6.47 µM) in assay [3] (setting [11]). Moreover, the MIC in assay [4] (setting [12]) was 2 µg/mL (≈ 3.23 µM); in assay [5] (setting [23]), 2 µg/mL (≈ 3.23 µM); in assay [5] (setting [24]), 32 µg/mL (≈ 51.7 µM). The MIC90 in assay [2] (setting [10]) came out at 8 µg/mL (≈ 12.9 µM). In addition, the pIC50 in assay [8] was 7.62.

For the compound `CO[C@H]1[C@@H](O)[C@H](n2ccc(=O)[nH]c2=O)O[C@@H]1[C@@H](O[C@H]1OC(C(=O)Nc2ccc([N+](=O)[O-])cc2)=C[C@H](O)[C@@H]1O)C(N)=O` [RKS2243], the minimum inhibitory concentration (MIC) is 0.5 to 8 µg/mL (≈ 0.863 to 13.8 µM) in assay [2] (setting [9]); 1 µg/mL (≈ 1.73 µM) in assay [2] (setting [13]); 1 µg/mL (≈ 1.73 µM) in assay [2] (setting [14]); 1 µg/mL (≈ 1.73 µM) in assay [2] (setting [15]); 0.5 µg/mL (≈ 0.863 µM) in assay [2] (setting [16]); 0.5 µg/mL (≈ 0.863 µM) in assay [2] (setting [17]). In addition, the minimum inhibitory concentration (MIC) in assay [2] (setting [18]) was determined as 1 µg/mL (≈ 1.73 µM); in assay [2] (setting [19]), 4 µg/mL (≈ 6.9 µM); in assay [2] (setting [20]), 1 µg/mL (≈ 1.73 µM); in assay [2] (setting [21]) it was 8 µg/mL (≈ 13.8 µM); in assay [2] (setting [22]), 1 µg/mL (≈ 1.73 µM); in assay [3] (setting [11]), 4 µg/mL (≈ 6.9 µM). In addition, the minimal inhibitory concentration (MIC) in assay [4] (setting [12]) was over 32 µg/mL; in assay [5] (setting [23]), 2 µg/mL (≈ 3.45 µM); in assay [5] (setting [24]), 32 µg/mL (≈ 55.2 µM). Further, in assay [2] (setting [10]), the MIC90 was determined as 4 µg/mL (≈ 6.9 µM). In assay [8], this compound showed a negative-log IC50 (pIC50) of 8.16.

For `CO[C@H]1[C@@H](O)[C@H](n2ccc(=O)[nH]c2=O)O[C@@H]1[C@@H](O[C@H]1OC(C(=O)Nc2ccc(Br)c(C)c2)=C[C@H](O)[C@@H]1O)C(N)=O` [RKS2244], the MIC is 0.5 to 8 µg/mL (≈ 0.797 to 12.8 µM) in assay [2] (setting [9]); 0.5 µg/mL (≈ 0.797 µM) in assay [2] (setting [13]); 0.25 µg/mL (≈ 0.398 µM) in assay [2] (setting [14]); 0.25 µg/mL (≈ 0.398 µM) in assay [2] (setting [15]); 0.25 µg/mL (≈ 0.398 µM) in assay [2] (setting [16]); 0.25 µg/mL (≈ 0.398 µM) in assay [2] (setting [17]). Also, the MIC was 0.5 µg/mL (≈ 0.797 µM) in assay [2] (setting [18]); 4 µg/mL (≈ 6.38 µM) in assay [2] (setting [19]); 0.5 µg/mL (≈ 0.797 µM) in assay [2] (setting [20]); 8 µg/mL (≈ 12.8 µM) in assay [2] (setting [21]); 1 µg/mL (≈ 1.59 µM) in assay [2] (setting [22]); 1 µg/mL (≈ 1.59 µM) in assay [3] (setting [11]). For the same compound, the minimal inhibitory concentration (MIC) in assay [4] (setting [12]) was 4 µg/mL (≈ 6.38 µM); in assay [5] (setting [23]), 2 µg/mL (≈ 3.19 µM); in assay [5] (setting [24]) it was over 32 µg/mL. Besides, the MIC90 in assay [2] (setting [10]) stood at 4 µg/mL (≈ 6.38 µM). For the same compound, the MIC range in assay [2] (ten MAC isolates (Table 6)) lay in the range of 0.25 to 8 µg/mL. The compound also had a negative logarithm of the IC50 (pIC50) in assay [8] of 7.91.
